Results taken from US20260041667A1 (priority 2021, published 2026).

What was measured:
[1] = target: hERG potassium channel current (IKr) (Homo sapiens, UniProt Q12809); conditions: Phase 1, 30 μM in protein free perfusate, n=3
Excerpt: This assay is employed as a screen to assess potential risks for QT interval prolongation.

[2] = test system: Beagle dogs; assay: 14-day repeat-dose intranasal toxicity and toxicokinetic study in dogs (Study 62959); format: in vivo; conditions: dog
Experimental: Assessments of mortality, clinical signs, olfactory reflex, body weights, food consumption, ophthalmology, and electrocardiograms were performed.

[3] = test system: Sprague Dawley rats; assay: 14-day repeat-dose intranasal toxicity and toxicokinetic study in rats (Study 700041); conditions: rat
[4] = intranasal 0.4 mg/kg/day, Day 1, Female
[5] = intranasal 0.4 mg/kg/day, Day 1, Male
[6] = intranasal 0.4 mg/kg/day, Day 14, Female
[7] = intranasal 0.4 mg/kg/day, Day 14, Male
[8] = intranasal 0.8 mg/kg/day, Day 1, Male
[9] = intranasal 0.8 mg/kg/day, Day 14, Male
[10] = intranasal 5 mg/kg/day, Day 1, Female
[11] = intranasal 5 mg/kg/day, Day 1, Male
[12] = intranasal 5 mg/kg/day, Day 14, Female
[13] = intranasal 5 mg/kg/day, Day 14, Male
[14] = intranasal 20 mg/kg/day, Day 1, Female
[15] = intranasal 20 mg/kg/day, Day 1, Male
[16] = intranasal 20 mg/kg/day, Day 14, Female
[17] = intranasal 20 mg/kg/day, Day 14, Male
[18] = intranasal 75 mg/kg/day, Day 1, Female
[19] = intranasal 75 mg/kg/day, Day 1, Male
[20] = intranasal 75 mg/kg/day, Day 14, Female
[21] = intranasal 75 mg/kg/day, Day 14, Male

hERG potassium channel current (IKr), sequence (Q12809 whole entry): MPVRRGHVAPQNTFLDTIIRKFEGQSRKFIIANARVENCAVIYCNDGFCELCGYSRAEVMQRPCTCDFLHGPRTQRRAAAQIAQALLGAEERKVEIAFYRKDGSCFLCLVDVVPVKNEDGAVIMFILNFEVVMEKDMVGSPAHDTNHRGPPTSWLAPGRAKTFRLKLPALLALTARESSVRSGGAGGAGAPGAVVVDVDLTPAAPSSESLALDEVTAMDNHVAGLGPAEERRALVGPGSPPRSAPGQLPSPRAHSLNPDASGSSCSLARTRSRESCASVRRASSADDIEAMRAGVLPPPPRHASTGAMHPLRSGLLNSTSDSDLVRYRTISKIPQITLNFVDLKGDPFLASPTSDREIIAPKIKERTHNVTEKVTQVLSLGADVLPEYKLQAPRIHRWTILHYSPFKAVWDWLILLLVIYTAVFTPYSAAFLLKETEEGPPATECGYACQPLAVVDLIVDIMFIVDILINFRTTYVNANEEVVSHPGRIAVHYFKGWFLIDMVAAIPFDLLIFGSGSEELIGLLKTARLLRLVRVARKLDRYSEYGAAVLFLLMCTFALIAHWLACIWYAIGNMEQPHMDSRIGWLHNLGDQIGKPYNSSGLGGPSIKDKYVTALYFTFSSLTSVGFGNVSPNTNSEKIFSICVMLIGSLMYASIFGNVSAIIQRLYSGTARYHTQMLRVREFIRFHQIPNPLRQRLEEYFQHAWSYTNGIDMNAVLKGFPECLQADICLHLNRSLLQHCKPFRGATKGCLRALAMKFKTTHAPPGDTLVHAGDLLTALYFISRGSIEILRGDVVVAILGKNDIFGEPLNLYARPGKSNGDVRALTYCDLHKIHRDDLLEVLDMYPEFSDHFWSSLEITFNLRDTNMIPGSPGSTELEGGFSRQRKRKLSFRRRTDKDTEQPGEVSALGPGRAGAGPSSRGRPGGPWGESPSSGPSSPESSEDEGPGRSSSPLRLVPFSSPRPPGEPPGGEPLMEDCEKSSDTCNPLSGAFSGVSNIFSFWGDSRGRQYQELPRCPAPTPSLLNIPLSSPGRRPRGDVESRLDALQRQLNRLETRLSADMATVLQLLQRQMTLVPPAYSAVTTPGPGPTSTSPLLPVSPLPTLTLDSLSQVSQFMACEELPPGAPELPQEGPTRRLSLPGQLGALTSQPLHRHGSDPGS

## COc1ccc2[nH]cc(CCN(C)C)c2c1 [Compound 5-MeO-DMT, 5-methoxy-N,N-dimethyltryptamine]
[1]
  Inhibition of hERG potassium ion current: 77.8±7.4%
[2]; [4]
  AUC0-Tlast: 104 ng·h/mL
  AUCINF—obs: 106 ng·h/mL
  t1/2: 18.7 min
[2]; [5]
  AUC0-Tlast: 77.9 ng·h/mL
  AUCINF—obs: 80.9 ng·h/mL
  t1/2: 34.3 min
[2]; [6]
  AUC0-Tlast: 86.4 ng·h/mL
  AUCINF—obs: 95.9 ng·h/mL
  Cmax: 196 ng/mL
[2]; [7]
  AUC0-Tlast: 70.6 ng·h/mL
  AUCINF—obs: 77.7 ng·h/mL
  Cmax: 285 ng/mL
[2]; [8]
  AUC0-Tlast: 152 ng·h/mL
  Cmax: 300 ng/mL
  t1/2: 35.7 min
[2]; intranasal 0.8 mg/kg/day, Day 14, Female
  t1/2: 95.4 min
[2]; [9]
  AUC0-Tlast: 298 ng·h/mL
  AUCINF—obs: 322 ng·h/mL
  Cmax: 411 ng/mL
  t1/2: 79.2 min
[3]; [10]
  AUC0-Tlast [SE]: 53.2 [15.9] h*ng/mL
  AUCINF—obs: (53.7) h*ng/mL
  Cmax [SE]: 186 [98.7] ng/mL
  Tmax: 9.96 min
[3]; [11]
  AUC0-Tlast [SE]: 39.9 [7.35] h*ng/mL
  AUCINF—obs: (40.1) h*ng/mL
  Cmax [SE]: 191 [45.6] ng/mL
[3]; [12]
  AUC0-Tlast [SE]: 63.8 [4.55] h*ng/mL
  AUCINF—obs: (64.0) h*ng/mL
  Cmax [SE]: 645 [106] ng/mL
  t1/2: 6.78 min
[3]; [13]
  AUC0-Tlast [SE]: 114 [13.8] h*ng/mL
  AUCINF—obs: (115) h*ng/mL
  Cmax [SE]: 627 [102] ng/mL
[3]; [14]
  AUC0-Tlast [SE]: 198 [15.2] h*ng/mL
  AUCINF—obs: (198) h*ng/mL
  Cmax [SE]: 679 [162] ng/mL
[3]; [15]
  AUC0-Tlast [SE]: 420 [62.1] h*ng/mL
  AUCINF—obs: (421) h*ng/mL
  Cmax [SE]: 4190 [1040] ng/mL
  t1/2: 7.5 min
[3]; [16]
  AUC0-Tlast [SE]: 169 [21.2] h*ng/mL
  AUCINF—obs: (169) h*ng/mL
  Cmax [SE]: 795 [115] ng/mL
[3]; [17]
  AUC0-Tlast [SE]: 133 [57.2] h*ng/mL
  AUCINF—obs: (133) h*ng/mL
  Cmax [SE]: 1200 [857] ng/mL
[3]; [18]
  AUC0-Tlast [SE]: 228 [49.7] h*ng/mL
  AUCINF—obs: (228) h*ng/mL
  Cmax [SE]: 1310 [802] ng/mL
  t1/2: 9.36 min
[3]; [19]
  AUC0-Tlast [SE]: 1030 [114] h*ng/mL
  AUCINF—obs: (1040) h*ng/mL
  Cmax [SE]: 7010 [1010] ng/mL
[3]; [20]
  AUC0-Tlast [SE]: 155 [53.8] h*ng/mL
  AUCINF—obs: (156) h*ng/mL
  Cmax [SE]: 870 [361] ng/mL
  t1/2: 7.8 min
[3]; [21]
  AUC0-Tlast [SE]: 391 [228] h*ng/mL
  AUCINF—obs: (392) h*ng/mL
  Cmax [SE]: 3290 [2510] ng/mL
  t1/2: 6.96 min
